How the values were obtained:
[1] = test system: barnyardgrass; test: Test B flooded paddy test; type: in vivo, Echinochloa crus-galli; conditions: 250 g ai/ha, Flood, 13 days, 0 to 100 scale (0 no effect, 100 complete control)
Summary of the method: (§1)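 Two-leaf plants, 3 cm flood, in-water application, 13-day greenhouse hold, visual 0–100 rating vs untreated checks.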

[2] = test system: ryegrass, Italian; test: Test A postemergence; type: in vivo, Lolium multiflorum
Summary of the method: (§2)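 Weeds and crops in loam–sand blend were sprayed preemergence onto soil or postemergence at 2–10 cm (one- to two-leaf stage). Test chemicals were in a non-phytotoxic solvent with surfactant. After 10 days in the greenhouse, injury was rated visually against untreated controls on a 0 (no effect) to 100 (complete control) scale.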

[3] = test system: sedge, umbrella; test: Test B flooded paddy test; type: in vivo, Cyperus difformis; conditions: 250 g ai/ha, Flood, 13 days, 0 to 100 scale (0 no effect, 100 complete control)
Summary of the method: as §1

[4] = test system: wheat; test: Test A postemergence; type: in vivo, Triticum aestivum
Summary of the method: as §2

[5] = test system: soybean; test: Test A preemergence; type: in vivo, Glycine max
Summary of the method: as §2

[6] = test system: kochia; test: Test A postemergence; type: in vivo, Bassia scoparia
Summary of the method: as §2

[7] = test system: horseweed; test: Test A postemergence; type: in vivo, Erigeron canadensis
Summary of the method: as §2

[8] = test system: galium; test: Test A postemergence; type: in vivo, Galium aparine
Summary of the method: as §2

[9] = test system: wheat; test: Test A preemergence; type: in vivo, Triticum aestivum
Summary of the method: as §2

[10] = test system: ryegrass, Italian; test: Test A preemergence; type: in vivo, Lolium multiflorum
Summary of the method: as §2

[11] = test system: pigweed, palmer; test: Test A preemergence; type: in vivo, Amaranthus palmeri
Summary of the method: as §2

[12] = test system: foxtail, giant; test: Test A preemergence; type: in vivo, Setaria faberi
Summary of the method: as §2

[13] = test system: goosegrass; test: Test A postemergence; type: in vivo, Eleusine indica
Summary of the method: as §2

[14] = test system: blackgrass; test: Test A preemergence; type: in vivo, Alopecurus myosuroides
Summary of the method: as §2

[15] = test system: rice; test: Test B flooded paddy test; type: in vivo, Oryza sativa; conditions: 250 g ai/ha, Flood, 13 days, 0 to 100 scale (0 no effect, 100 complete control)
Summary of the method: as §1

[16] = test system: oat, wild; test: Test A preemergence; type: in vivo, Avena fatua
Summary of the method: as §2

[17] = test system: blackgrass; test: Test A postemergence; type: in vivo, Alopecurus myosuroides
Summary of the method: as §2

[18] = test system: ducksalad; test: Test B flooded paddy test; type: in vivo, Heteranthera limosa; conditions: 250 g ai/ha, Flood, 13 days, 0 to 100 scale (0 no effect, 100 complete control)
Summary of the method: as §1

[19] = test system: goosegrass; test: Test A preemergence; type: in vivo, Eleusine indica
Summary of the method: as §2

[20] = test system: ragweed; test: Test A preemergence; type: in vivo, Ambrosia artemisiifolia
Summary of the method: as §2

[21] = test system: ragweed; test: Test A postemergence; type: in vivo, Ambrosia artemisiifolia
Summary of the method: as §2

[22] = test system: soybean; test: Test A postemergence; type: in vivo, Glycine max
Summary of the method: as §2

[23] = test system: corn; test: Test A postemergence; type: in vivo, Zea mays
Summary of the method: as §2

[24] = test system: pigweed, palmer; test: Test A postemergence; type: in vivo, Amaranthus palmeri
Summary of the method: as §2

[25] = test system: corn; test: Test A preemergence; type: in vivo, Zea mays
Summary of the method: as §2

[26] = test system: kochia; test: Test A preemergence; type: in vivo, Bassia scoparia
Summary of the method: as §2

[27] = test system: oat, wild; test: Test A postemergence; type: in vivo, Avena fatua
Summary of the method: as §2

[28] = test system: foxtail, giant; test: Test A postemergence; type: in vivo, Setaria faberi
Summary of the method: as §2

[29] = 125 g ai/ha, postemergence, 10 days, visual injury, 0 to 100 scale (0 no effect, 100 complete control)
[30] = 500 g ai/ha, Postemergence, 0 to 100 scale
[31] = 125 g ai/ha, visual injury after 10 days, 0 to 100 scale, 0 is no effect, 100 is complete control
[32] = 500 g ai/ha, 0 to 100 scale (0 no effect, 100 complete control), 10 days

CC1CN(C(=O)c2cc(-n3cncn3)ccc2F)c2cccc(Cl)c2O1 (centres unmarked) [Compound 39]
40: Plant response rating, Ryegrass, Italian [10, 31] | Plant response rating, Pigweed, Palmer [24, 30] | Plant response rating, Oat, Wild [27, 29]
10: Plant response rating, Wheat [4, 29] | Plant response rating, Ragweed [20, 31] | Plant response rating, Foxtail, Giant [28, 29]
70: Plant response rating, Soybean [5, 32] | Plant response rating, Oat, Wild [16, 32] | Plant response rating, Corn [23, 30]
20: Plant response rating, Horseweed [7, 30] | Plant response rating, Ragweed [20, 32] | Plant response rating, Pigweed, Palmer [24, 29]
60: Plant response rating, Kochia [6, 30] | Plant response rating, Goosegrass [13, 30] | Plant response rating, Blackgrass [14, 32] | Plant response rating, Blackgrass [17, 29] | Plant response rating, Blackgrass [17, 30] | Plant response rating, Ragweed [21, 30]
90: Plant response rating, Galium [8, 29] | Plant response rating, Pigweed, Palmer [11, 32] | Plant response rating, Foxtail, Giant [12, 31] | Plant response rating, Goosegrass [19, 31] | Plant response rating, Oat, Wild [27, 30] | Plant response rating, Foxtail, Giant [28, 30]
50: Plant response rating, Ryegrass, Italian [2, 29] | Plant response rating, Wheat [4, 30] | Plant response rating, Pigweed, Palmer [11, 31] | Plant response rating, Kochia [26, 32]
30: Plant response rating, Soybean [5, 31] | Plant response rating, Kochia [6, 29] | Plant response rating, Wheat [9, 32] | Plant response rating, Goosegrass [13, 29] | Plant response rating, Corn [25, 32]
0: Plant response rating, Barnyardgrass [1] | Plant response rating, Sedge, Umbrella [3] | Plant response rating, Horseweed [7, 29] | Plant response rating, Wheat [9, 31] | Plant response rating, Blackgrass [14, 31] | Plant response rating, Rice [15] | Plant response rating, Oat, Wild [16, 31] | Plant response rating, Ducksalad [18] | Plant response rating, Ragweed [21, 29] | Plant response rating, Corn [23, 29] | Plant response rating, Corn [25, 31] | Plant response rating, Kochia [26, 31]
100: Plant response rating, Ryegrass, Italian [2, 30] | Plant response rating, Galium [8, 30] | Plant response rating, Ryegrass, Italian [10, 32] | Plant response rating, Foxtail, Giant [12, 32] | Plant response rating, Goosegrass [19, 32] | Plant response rating, Soybean [22, 29] | Plant response rating, Soybean [22, 30]

Cc1c(C(=O)N2CC(C)Oc3c(Cl)cccc32)cccc1-n1cncn1 (centres unmarked) [Compound 40]
40: Plant response rating, Soybean [5, 32]
10: Plant response rating, Kochia [6, 30]
20: Plant response rating, Soybean [22, 30]
0: Plant response rating, Barnyardgrass [1] | Plant response rating, Ryegrass, Italian [2, 29] | Plant response rating, Ryegrass, Italian [2, 30] | Plant response rating, Sedge, Umbrella [3] | Plant response rating, Wheat [4, 29] | Plant response rating, Wheat [4, 30] | Plant response rating, Soybean [5, 31] | Plant response rating, Kochia [6, 29] | Plant response rating, Horseweed [7, 29] | Plant response rating, Horseweed [7, 30] | Plant response rating, Galium [8, 30] | Plant response rating, Wheat [9, 31] | Plant response rating, Wheat [9, 32] | Plant response rating, Ryegrass, Italian [10, 31] | Plant response rating, Ryegrass, Italian [10, 32] | Plant response rating, Pigweed, Palmer [11, 31] | Plant response rating, Pigweed, Palmer [11, 32] | Plant response rating, Foxtail, Giant [12, 31] | Plant response rating, Foxtail, Giant [12, 32] | Plant response rating, Goosegrass [13, 29] | Plant response rating, Goosegrass [13, 30] | Plant response rating, Blackgrass [14, 31] | Plant response rating, Blackgrass [14, 32] | Plant response rating, Rice [15] | Plant response rating, Oat, Wild [16, 31] | Plant response rating, Oat, Wild [16, 32] | Plant response rating, Blackgrass [17, 29] | Plant response rating, Blackgrass [17, 30] | Plant response rating, Ducksalad [18] | Plant response rating, Goosegrass [19, 31] | Plant response rating, Goosegrass [19, 32] | Plant response rating, Ragweed [20, 31] | Plant response rating, Ragweed [20, 32] | Plant response rating, Ragweed [21, 29] | Plant response rating, Ragweed [21, 30] | Plant response rating, Soybean [22, 29] | Plant response rating, Corn [23, 29] | Plant response rating, Corn [23, 30] | Plant response rating, Pigweed, Palmer [24, 29] | Plant response rating, Pigweed, Palmer [24, 30] | Plant response rating, Corn [25, 31] | Plant response rating, Corn [25, 32] | Plant response rating, Kochia [26, 31] | Plant response rating, Kochia [26, 32] | Plant response rating, Oat, Wild [27, 29] | Plant response rating, Oat, Wild [27, 30] | Plant response rating, Foxtail, Giant [28, 29] | Plant response rating, Foxtail, Giant [28, 30]
30: Plant response rating, Galium [8, 29]
